In patent US5707966A, “Antithrombotic agents” (Eli Lilly and Company, priority 1995, dated 1998):
Counter-ions that a name gives are not always drawn. Like-named read-outs stand apart in the source and are kept apart here.

Legend:
t-PA = biological target: T1, t-PA (Homo sapiens, UniProt P00750); assay: Kass with t-PA, chromogenic substrate; type: biochemical; conditions: substrate H-D-Ile-Pro-Arg-p-nitroanilide
T1 construct: purchased American Diagnostica, Greenwich, Conn

Human plasmin = biological target: T2, Human plasmin (Homo sapiens, UniProt P00747); assay: Kass with plasmin, chromogenic substrate; type: biochemical
T2 construct: Human plasmin is purchased; purchased Boehringer Mannheim, Indianapolis, Ind
T2 sequence (P00747 97-810): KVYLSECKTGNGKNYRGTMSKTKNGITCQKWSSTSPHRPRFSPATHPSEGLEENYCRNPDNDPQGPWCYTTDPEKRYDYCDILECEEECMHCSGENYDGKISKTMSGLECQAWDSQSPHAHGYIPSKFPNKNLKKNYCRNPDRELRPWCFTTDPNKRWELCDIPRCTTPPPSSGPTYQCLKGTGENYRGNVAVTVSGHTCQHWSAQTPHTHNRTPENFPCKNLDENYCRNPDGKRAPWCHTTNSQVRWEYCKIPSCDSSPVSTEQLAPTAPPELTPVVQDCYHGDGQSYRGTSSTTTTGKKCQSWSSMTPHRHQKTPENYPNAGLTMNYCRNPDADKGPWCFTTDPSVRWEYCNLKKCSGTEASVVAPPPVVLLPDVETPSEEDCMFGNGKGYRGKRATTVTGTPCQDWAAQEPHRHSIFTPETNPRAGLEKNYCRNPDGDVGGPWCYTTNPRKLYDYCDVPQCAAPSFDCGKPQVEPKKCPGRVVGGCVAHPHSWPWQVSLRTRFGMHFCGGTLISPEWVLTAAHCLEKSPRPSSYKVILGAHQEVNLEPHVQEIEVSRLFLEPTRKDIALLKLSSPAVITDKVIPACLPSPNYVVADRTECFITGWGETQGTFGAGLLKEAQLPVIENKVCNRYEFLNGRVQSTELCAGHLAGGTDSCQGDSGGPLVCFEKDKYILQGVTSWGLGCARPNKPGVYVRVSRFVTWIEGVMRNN
T2 sequence (P00747 97-580 partner limits assumed): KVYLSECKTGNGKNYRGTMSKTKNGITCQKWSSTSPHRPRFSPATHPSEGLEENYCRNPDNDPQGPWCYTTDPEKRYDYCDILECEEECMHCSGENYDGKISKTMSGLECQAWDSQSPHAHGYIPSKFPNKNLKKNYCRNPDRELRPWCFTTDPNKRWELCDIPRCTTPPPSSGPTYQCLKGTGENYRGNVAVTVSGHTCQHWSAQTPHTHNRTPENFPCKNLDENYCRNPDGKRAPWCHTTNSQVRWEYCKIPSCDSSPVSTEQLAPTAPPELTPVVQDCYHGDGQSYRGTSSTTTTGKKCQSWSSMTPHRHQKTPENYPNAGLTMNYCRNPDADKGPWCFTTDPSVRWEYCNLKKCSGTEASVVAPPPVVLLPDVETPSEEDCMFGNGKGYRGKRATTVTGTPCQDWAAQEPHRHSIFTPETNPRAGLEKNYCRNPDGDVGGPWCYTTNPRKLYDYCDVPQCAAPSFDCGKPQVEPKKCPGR

Bovine trypsin = biological target: T3, Bovine trypsin (Bos taurus, UniProt P00760); assay: Kass with trypsin, chromogenic substrate; type: biochemical
T3 construct: Bovine trypsin is purchased; purchased Worthington Biochemicals, Freehold, N.J
T3 sequence (P00760 24-246): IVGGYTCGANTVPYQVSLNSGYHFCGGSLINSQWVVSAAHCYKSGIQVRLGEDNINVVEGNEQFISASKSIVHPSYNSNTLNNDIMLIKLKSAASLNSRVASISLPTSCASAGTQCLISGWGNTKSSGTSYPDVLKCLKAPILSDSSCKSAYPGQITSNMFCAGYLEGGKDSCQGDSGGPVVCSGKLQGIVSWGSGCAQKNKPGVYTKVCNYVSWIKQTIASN

Human plasma [1] = assay: Human plasma anticoagulation, thrombin time (TT); type: biochemical; conditions: concentration required to double the thrombin time, linear extrapolation
In short: (§1)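 Compounds added across a wide concentration range to plasma; PT measured with Thromboplastin-C, APTT after 120 s Actin incubation then 0.02 M CaCl2, TT with bovine thrombin (10 NIH units/mL). Clotting-time doubling concentrations estimated by linear extrapolation.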

[2] = Index of bioavailability (% Relative Activity, plasma TT AUC oral vs i.v.); type: in vivo; conditions: dose-adjusted AUC of plasma TT, p.o. vs i.v. bolus
Description: Parke Davis) at 37° C. […] Assays are done in duplicate and averaged. […] Each sample population represented alternating sequential time points.

Human Thrombin = Human Thrombin (Homo sapiens, UniProt P00734); assay: Inhibition of amidase activity of thrombin (Kass); type: biochemical
factor Xa = biological target: T4, factor Xa (Homo sapiens, UniProt P00742); assay: Kass with factor Xa, chromogenic substrate; type: biochemical
T4 construct: Human factors X, Xa, IXa, XIa, and XIIa are purchased; purchased Enzyme Research Laboratories, South Bend, Ind
T4 sequence (P00742 235-488 limits assumed): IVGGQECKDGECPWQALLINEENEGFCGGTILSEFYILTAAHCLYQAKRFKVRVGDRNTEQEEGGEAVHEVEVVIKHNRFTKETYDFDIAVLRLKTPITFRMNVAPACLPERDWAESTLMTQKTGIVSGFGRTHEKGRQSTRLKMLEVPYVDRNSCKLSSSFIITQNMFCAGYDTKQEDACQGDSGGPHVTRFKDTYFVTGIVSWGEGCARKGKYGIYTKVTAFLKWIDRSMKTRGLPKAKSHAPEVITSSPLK
T4 sequence (P00742 41-179 partner limits assumed): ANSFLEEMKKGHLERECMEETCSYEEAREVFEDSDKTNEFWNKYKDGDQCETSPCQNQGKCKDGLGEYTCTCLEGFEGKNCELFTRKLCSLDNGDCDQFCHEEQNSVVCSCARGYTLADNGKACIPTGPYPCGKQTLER

Human plasma [3] = assay: Human plasma anticoagulation, activated partial thromboplastin time (APTT); type: biochemical; conditions: concentration required to double the APTT, linear extrapolation
In short: as §1

Human plasma [4] = assay: Human plasma anticoagulation, prothrombin time (PT); type: biochemical; conditions: concentration required to double the PT, linear extrapolation
In short: as §1

[5] = substrate H-D-Val-Leu-Lys-p-nitroanilide
[6] = substrate N-Benzoyl-Phe-Val-Arg-p-nitroanilide
[7] = mean over a range of concentrations, […]
[8] = substrate N-Benzoyl-Ile-Glu-Gly-Arg-p-nitroanilide

T1 sequence (P00750 36-562): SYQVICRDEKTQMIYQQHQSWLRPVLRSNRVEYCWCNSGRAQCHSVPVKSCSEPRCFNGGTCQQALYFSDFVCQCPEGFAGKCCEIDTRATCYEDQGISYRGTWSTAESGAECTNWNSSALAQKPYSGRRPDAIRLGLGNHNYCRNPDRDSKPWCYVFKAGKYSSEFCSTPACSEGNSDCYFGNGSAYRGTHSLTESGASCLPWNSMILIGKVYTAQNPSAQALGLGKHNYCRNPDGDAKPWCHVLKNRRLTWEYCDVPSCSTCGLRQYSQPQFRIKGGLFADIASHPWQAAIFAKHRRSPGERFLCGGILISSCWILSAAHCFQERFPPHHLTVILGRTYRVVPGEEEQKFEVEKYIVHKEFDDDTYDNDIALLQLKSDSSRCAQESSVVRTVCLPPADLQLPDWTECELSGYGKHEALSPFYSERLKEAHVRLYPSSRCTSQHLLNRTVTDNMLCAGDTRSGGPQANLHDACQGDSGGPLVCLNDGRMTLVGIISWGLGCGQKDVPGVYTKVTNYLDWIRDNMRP

Compound | Kass t-PA (t-PA) | Kass Plasmin (Human plasmin) | Kass Trypsin (Bovine trypsin) | Human Plasma Anticoagulation 2× Clotting time TT (Human plasma [1]) | % oral/i.v. activity (Rat) [2] | Kass Human Thrombin (Human Thrombin) | Kass Xa (factor Xa) | Kass Plasmin (Human plasmin; [5]) | Kass Trypsin (Bovine trypsin; [6]) | Kass Human Thrombin (Human Thrombin; [7]) | Human Plasma Anticoagulation 2× Clotting time APTT (Human plasma [3]) | Kass Xa (factor Xa; [8]) | Human Plasma Anticoagulation 2× Clotting time PT (Human plasma [4])
CCS(=O)(=O)N[C@H](Cc1ccccc1)C(=O)N1CCC[C@H]1C(=O)NCCCCNC(=N)N [Example 1, EtSO2 -D-Phe-Pro-Agm.HCl] | 0.082 × 10^6 (L/mole) | 0.010 | 0.38 | 250 ng/mL | 8% | 3.3 | 0.0017 |  |  |  |  |  | 
D-hPro-N(PhCH2 CH2)Gly-p-NHCH2 --C6 H4 C(NH)NH2.2HCl [Example 21] | 0.002 × 10^6 (L/mole) |  |  | 160 ng/mL |  |  |  | 0.031 × 10^6 (L/mole) | 0.96 × 10^6 (L/mole) | 3.6 × 10^6 (L/mole) | 2,000 ng/mL | 0.62 × 10^6 (L/mole) | 1,000 ng/mL
D-hPro-Pro(4-cis-PhO)-p-NHCH2 --C6 H4 C(NH)NH2.2HCl [Example 22] | 0.004 × 10^6 (L/mole) |  |  | 170 ng/mL |  |  |  | 0.042 × 10^6 (L/mole) | 8.5 × 10^6 (L/mole) | 3.0 × 10^6 (L/mole) | 2,300 ng/mL | 0.043 × 10^6 (L/mole) | 1,000 ng/mL
D-hPro-Pro-p-NHCH2 C6 H4 C(NH)NH2.HCl [Example 17] | 0.0034 × 10^6 (L/mole) |  |  | 26 ng/mL |  |  |  | 0.024 × 10^6 (L/mole) | 3.8 × 10^6 (L/mole) | 33 × 10^6 (L/mole) | 370 ng/mL | 0.049 × 10^6 (L/mole) | 400 ng/mL
EtSO2 -D-Phe-Pro-p-NHCH2 --C6 H4 C(=NH)NH2.HCl [Example 23] | 0.31 × 10^6 (L/mole) |  |  | 7 ng/mL |  |  |  | 0.44 × 10^6 (L/mole) | 21 × 10^6 (L/mole) | 770 × 10^6 (L/mole) | 86 ng/mL | 0.14 × 10^6 (L/mole) | 120 ng/mL
HOOCCH2 -D-Phe-Pro-p-NHCH2 C6 H4 C(NH)NH2.HCl [Example 46] | 0.01 × 10^6 (L/mole) | 0.13 |  | 2 ng/mL |  | 240 | 0.07 |  | 48 × 10^6 (L/mole) |  | 67 ng/mL |  | 77 ng/mL
